Earlier results, collected in US20250258260A1, “MEGLUMINE BASED FORMULATIONS FOR DYNAMIC NUCLEAR POLARIZATION” (THE BOARD OF REGENTS OF THE UNIVERSITY OF TEXAS SYSTEM, priority 2024, published 2025).
Values after ≈ are worked out from the molar mass of the structure shown. Where two headings read alike, the source gives them in different places. Values belong to the compound of their own block, whether it stands above or below them.

What was measured:
[1] = tested on: muscle function; conditions: 18 mM in drinking water for at least 30 days
[2] = at 11.7 T using water as solvent

Structure (SMILES): O=C(O)/C=C/C(=O)O [fumaric acid]
solubility in water (at 25° C.): 6 mg/mL (≈ 51.7 mM)

Structure (SMILES): CNC[C@H](O)[C@@H](O)[C@H](O)[C@H](O)CO [meglumine]
effect of supplementation [1]: favorable effect on muscle function
solubility in water: up to 1 g/mL

T1 [2]: 29 s
Structure (SMILES): O=[13C](O)/C=C/[13C](=O)O [[1,4-^13C2]fumarate]
